Patent US7141590B2, “Pharmaceutical uses and synthesis of nicotinanilide-N-oxides” (UCB SA, priority 2000, dated 2006)

What was measured:
[1] = target: T1, IL-8 type β receptor (IL-8Rβ) (Homo sapiens, UniProt P25025); assay: [125I] IL-8 binding assay (WGA-SPA beads, IL-8Rβ membranes); conditions: 20 uM compound; [125I] IL-8, IL-8Rβ membranes
T1 construct: purchased BioSignal, Montreal, Canada; host or cells: Sf9 cells
T1 sequence (P25025 1-360): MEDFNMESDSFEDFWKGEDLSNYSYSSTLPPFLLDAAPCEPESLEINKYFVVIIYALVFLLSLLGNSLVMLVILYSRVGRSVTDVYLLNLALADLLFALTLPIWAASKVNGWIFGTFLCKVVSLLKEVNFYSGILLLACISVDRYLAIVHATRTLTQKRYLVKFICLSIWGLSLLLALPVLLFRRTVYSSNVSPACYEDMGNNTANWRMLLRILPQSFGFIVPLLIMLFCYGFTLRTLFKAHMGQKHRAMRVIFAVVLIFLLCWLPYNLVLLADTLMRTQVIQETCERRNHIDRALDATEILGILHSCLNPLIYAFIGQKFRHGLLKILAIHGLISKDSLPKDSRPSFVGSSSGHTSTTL
Protocol: IL-8 (human recombinant) was obtained from NEN Life Science Products, Inc., Boston, Mass., with specific activity of 2200 Ci/mmol. Recombinant human IL-8 was obtained from R&D Systems, Minneapolis, Minn. IL-8 type β receptor membranes were prepared from […] co-expressed with Gαi3β1γ2 proteins by BioSignal™, Montreal, Canada. Wheat Germ Agglutinin Scintillation Proximity Assay Beads were obtained from Amersham Pharmacia Biotech, Piscataway, N.J. All assays were performed in a 96-well, solvent resistant, white PicoPlate obtained from Packard Instruments. […] The assay was initiated by the addition of WGA-SPA beads in 25 mM Hepes (pH 7.4) containing 2 mM CaCl2 and 1 mM MgCl2. After 4–6 hours of gentle agitation at room temperature, the plate was counted on the Packard TopCount liquid scintillation counter.

[2] = tested on: polymorphonuclear neutrophils (PMNs); assay: GRO-α driven chemotaxis assay with PMNs (ChemoTx plate); type: cell-based; conditions: 20 μM compound; 50 nM GRO-α, human PMNs
Protocol: Peripheral blood from healthy human volunteers was collected into heparin, diluted in an equal volume of PBS, layered over Ficoll-Paque Plus (Pharmacia Biotech, Uppsala, Sweden), and spun at 400×g for 30 min. The PMN rich fraction was removed and residual erythrocytes were lysed with hypotonic saline. The polymorphonuclear neutrophils (PMNs) were washed once with assay buffer (Dulbecco's PBS containing divalent cations and 0.1% endotoxin-free BSA), and resuspended at 1E7 cells/mL in the same buffer. PMNs were loaded with 5 μM calcein AM (Molecular Probes, Eugene, Oreg.), washed twice and resuspended in assay buffer.
Growth Regulatory Oncogene a (GRO-α) driven chemotaxis assays were performed according to the following protocol. […] Test compounds were dissolved in DMSO (100%) at 20 mM and diluted in assay buffer to the desired concentrations; final DMSO concentration was 0.2%. Neutrophil migration proceeded for 40 min at 37° C. in a humidified incubator with 5% CO2. After removing nonmigrated cells from the top of the plate, migrated cells were quantified by reading fluorescence on a Wallac Victor.
The ratio of the positive to negative controls represents the chemotactic index of the cells. The results from this assay are reported in Tables 3–5, under the column headings IL-8 and GRO-α, and under the sub-column headings ChTx (for chemotaxis).

For O=C(Nc1ccc(F)cc1)c1ccc(NCc2ccccc2)[n+]([O-])c1, the “IL-8 Binding @ 20 uM, %” value [1] was “* (“*” for % values of less than or equal to 40)” and the “GRO-α ChTx @ 20 μM, %” value [2] was “* (“*” for % values of less than or equal to 40)”.

For COc1cc(NC(=O)c2ccc(Cl)[n+]([O-])c2)cc(OC)c1OC, the “GRO-α ChTx @ 20 μM, %” value [2] was “* (“*” for % values of less than or equal to 40)”.

For O=C(Nc1ccc(F)cc1)c1cc(Cl)c(Cl)[n+]([O-])c1 [drawing 126], the “GRO-α ChTx @ 20 μM, %” value [2] was “** (“**” for % values greater than 40)”.

O=C(Nc1ccc(F)cc1)c1ccc(Br)[n+]([O-])c1 [Br, 6-BROMO-N-(4-FLUORO-PHENYL)-1-OXY-NICOTINAMIDE] was tested, and the “GRO-α ChTx @ 20 μM, %” value [2] was “** (“**” for % values greater than 40)”.

With O=C(Nc1ccc(F)cc1)c1ccc(S(=O)(=O)Cc2ccccc2)[n+]([O-])c1 [drawing 52] the “IL-8 Binding @ 20 uM, %” value [1] was “** (“**” for % values greater than 40)” and the “GRO-α ChTx @ 20 μM, %” value [2] was “** (“**” for % values greater than 40)”.

For Nc1ccc(C(=O)Nc2ccc(F)cc2)c[n+]1[O-], the “IL-8 Binding @ 20 uM, %” value [1] was “* (“*” for % values of less than or equal to 40)” and the “GRO-α ChTx @ 20 μM, %” value [2] was “* (“*” for % values of less than or equal to 40)”.

In the case of Cc1cc(NC(=O)c2ccc(Cl)[n+]([O-])c2)ccc1Br, the “IL-8 Binding @ 20 uM, %” value [1] was “* (“*” for % values of less than or equal to 40)” and the “GRO-α ChTx @ 20 μM, %” value [2] was “** (“**” for % values greater than 40)”.

For O=C(Nc1ccc(F)c(C(F)(F)F)c1)c1ccc(Cl)[n+]([O-])c1, the “IL-8 Binding @ 20 uM, %” value [1] was “* (“*” for % values of less than or equal to 40)” and the “GRO-α ChTx @ 20 μM, %” value [2] was “** (“**” for % values greater than 40)”.

O=C(Nc1ccc(I)cc1)c1ccc(Cl)[n+]([O-])c1 was tested, and the “IL-8 Binding @ 20 uM, %” value [1] was “* (“*” for % values of less than or equal to 40)” and the “GRO-α ChTx @ 20 μM, %” value [2] was “** (“**” for % values greater than 40)”.

CC(C)(C)c1ccc(NC(=O)c2ccc(Cl)[n+]([O-])c2)cc1 was tested, and the “IL-8 Binding @ 20 uM, %” value [1] was “* (“*” for % values of less than or equal to 40)” and the “GRO-α ChTx @ 20 μM, %” value [2] was “** (“**” for % values greater than 40)”.

For NC(=O)c1cccc(NC(=O)c2ccc(Cl)[n+]([O-])c2)c1, the “IL-8 Binding @ 20 uM, %” value [1] was “* (“*” for % values of less than or equal to 40)” and the “GRO-α ChTx @ 20 μM, %” value [2] was “* (“*” for % values of less than or equal to 40)”.

COc1ccc(C(=O)O)cc1NC(=O)c1ccc(Cl)[n+]([O-])c1 was tested, and the “GRO-α ChTx @ 20 μM, %” value [2] was “** (“**” for % values greater than 40)”.

In the case of CSc1ccc(NC(=O)c2ccc(Cl)[n+]([O-])c2)cc1, the “GRO-α ChTx @ 20 μM, %” value [2] was “** (“**” for % values greater than 40)”.

CN(C)c1ccc(C(=O)Nc2ccc(F)cc2)c[n+]1[O-] was tested, and the “IL-8 Binding @ 20 uM, %” value [1] was “* (“*” for % values of less than or equal to 40)”.

With O=C(Nc1ccc(F)c(F)c1C(=O)O)c1ccc(Cl)[n+]([O-])c1 the “GRO-α ChTx @ 20 μM, %” value [2] was “** (“**” for % values greater than 40)”.

For O=C(Nc1ccc(F)cc1)c1ccc(Cl)[n+]([O-])c1Cl, the “GRO-α ChTx @ 20 μM, %” value [2] was “** (“**” for % values greater than 40)”.

For COC(=O)c1ccc(NC(=O)c2ccc(Cl)[n+]([O-])c2)cc1, the “GRO-α ChTx @ 20 μM, %” value [2] was “** (“**” for % values greater than 40)”.

O=C(Nc1ccc(O)c(C(=O)O)c1)c1ccc(Cl)[n+]([O-])c1 was tested, and the “GRO-α ChTx @ 20 μM, %” value [2] was “* (“*” for % values of less than or equal to 40)”.

CC(C)(C)OC(=O)c1cccc(NC(=O)c2ccc(Cl)[n+]([O-])c2)c1 was tested, and the “GRO-α ChTx @ 20 μM, %” value [2] was “** (“**” for % values greater than 40)”.

Cc1ccc(C(=O)Nc2ccc(F)cc2)c(Cl)[n+]1[O-] was tested, and the “GRO-α ChTx @ 20 μM, %” value [2] was “* (“*” for % values of less than or equal to 40)”.

N#Cc1cccc(NC(=O)c2ccc(Cl)[n+]([O-])c2)c1 was tested, and the “GRO-α ChTx @ 20 μM, %” value [2] was “** (“**” for % values greater than 40)”.

For O=C(Nc1cccc(F)c1F)c1ccc(Cl)[n+]([O-])c1, the “GRO-α ChTx @ 20 μM, %” value [2] was “** (“**” for % values greater than 40)”.

In the case of O=C(Nc1cc(F)c(F)c(C(=O)O)c1F)c1ccc(Cl)[n+]([O-])c1, the “GRO-α ChTx @ 20 μM, %” value [2] was “* (“*” for % values of less than or equal to 40)”.

In the case of O=C(O)c1cccc(NC(=O)c2ccc(Cl)[n+]([O-])c2)c1, the “GRO-α ChTx @ 20 μM, %” value [2] was “* (“*” for % values of less than or equal to 40)”.

CSc1ccccc1NC(=O)c1ccc(Cl)[n+]([O-])c1 was tested, and the “GRO-α ChTx @ 20 μM, %” value [2] was “** (“**” for % values greater than 40)”.

In the case of CCCCc1ccc(NC(=O)c2ccc(Cl)[n+]([O-])c2)cc1, the “GRO-α ChTx @ 20 μM, %” value [2] was “** (“**” for % values greater than 40)”.
